Source: patent publication US20140294849A1, “COMPOSITIONS AND USES” (GLAXOSMITHKLINE BIOLOGICALS SA, priority 2011, published 2014)
No end group written: not given here.

How the values were obtained:
BV2 microglia cells = test: In vitro phagocytosis of Aβ1-42 in BV2 cells, Western blot; format: cell-based, mouse; details: Example 16; 5 μg/mL cytochalasin D
Experimental: For total Aβ detection, 10-30 μg of cell extracts were separated on a precast 10-20% SDS polyacrylamide Tris-Tricine gel (Bio-Rad, Canada). Separated proteins were then transferred onto polyvinylidene fluoride (PVDF) membranes (PerkinElmer, Canada). Membrane were incubated in DPBS (Gibco, USA) at 90° C. for 10 min. Membrane were then incubated for 1 hour in blocking solution, which consist in TBS-T (50 mM Tris-HCl pH 8.0; 150 mM NaCl; 0.05% Tween 20) supplemented with 1% BSA (Sigma, Canada) and 5% non-fat dry milk, and probed for 16 hours at 4° C. with a mouse anti-amyloid beta protein monoclonal antibody clone 6E10 (Covance, USA) diluted to 1:1000 in TBS-T supplemented with 5% BSA and 0.02% sodium azide. Membranes were washed once for 15 min and three times for 5 min in TBS-T at room temperature. […] Films were digitalized using a HP Scanjet 4370 (HP) and signal intensity was measured using ImageJ (version 1.44p, NIH).
Aβ specific antibodies stimulate the uptake of soluble Aβ1-42 toxic peptides in an actin polymerization-dependent mechanism. […] Cells were incubated for the indicated period of time, resuspended by trypsinization, collected, solubilised in lysis buffer and further analyzed by immunoblotting. […]

Aβ42 = test: Anti Aβ42 specific immunogenicity in TASTPM mice; format: in vivo; details: Example 24; 12 injections of 10 ug, intramuscular
Experimental: Whole blood is collected from mice and centrifuged on a vacutainer blood collection tube containing gel for serum separation. Serum samples are stored at −80° C. Streptavidin-coated plates (Greiner Bio-One, Germany) are first coated with beta-amyloid (1-42)-Lys(Biotin)-NH2 peptide (Anaspec, Inc.) at 0.5 μg/mL, using 50 mM sodium carbonate buffer, overnight at 4° C. Plates are then washed using a 4 times using PBS/0.05% Tween 20. Super Block (ScyTek laboratories) is added to the plates and incubated at 37° C. for at least one hour. Serum samples and standard (anti Aβ42 antibody (6E10 antibody, Covance, Inc.) are serially diluted in the plates and incubated at 37° C. for 2 hours. After a wash step, diluted peroxidase AffiniPure goat anti-mouse IgG, Fcγ fragment specific (Jackson ImmunoResearch Laboratories Inc.) is added for 1 hour at 37° C. A last wash is performed before adding TMB substrate reagent (BD OptEIA™, BD Biosciences) for 30 min at RT. Immediately, plates are stopped using 2N sulfuric acid, and then read at 450 nm using SpectraMax microplate reader (Molecular Devices, Inc.).
High and specific anti Aβ42 specific immunogenicity is promoted by a TLR2 containing adjuvant fused to the first six amino acid of Aβ in the amyloid deposition mouse model (TASTPM) following 12 injections of 10 ug of the Pam3Cys—SQ EPAAPAAEAT PAAEAP DAEFRH (SEQ ID NO:9) using the intramuscular route.

working memory = test: T-water maze in TASTPM mice; format: in vivo; details: Example 25; 12 weekly i.m. injections; vs PBS
Experimental: Mice were tested during the “light on” phase of the day. Behavioral experimenter was blinded to the genetic and treatment status of animals. To assess hippocampal-dependent spatial learning and memory, mice were trained in the T-water maze task. In this paradigm, we evaluate the mouse's ability to remember the spatial location of submerged platform. The T-maze apparatus (length of stem, 64 cm; length of arms, 30 cm; width, 12 cm; height of walls, 16 cm) was made of clear fiberglass and filled with water (23±1° C.) at a height of 12 cm. A platform (11×11 cm) was placed at the end of the target arm and was submerged 1 cm below the surface. The acquisition phase allows to evaluate animals for left-right spatial learning. During the first two trials, platforms were placed on each arms of the maze to test the spontaneous turning preference of the mouse. After these two trials, the least chosen arm was reinforced by the escape platform. […] The number of trials to reach the criterion (five of five correct choices made on consecutive trials) was measured as well as the latency to find the escape platform.
To determine whether a TLR2 agonist will improve the cognitive impairment in TASTPM mice, the Pam3CysLip adjuvant fused to the Aβ1-6 peptide was injected 12 times at weekly basis using the intramuscular route and the memory was assessed using the T-water maze test. […]

TASTPM mice = test: Survival rate of TASTPM mouse model; format: in vivo; details: Example 26; weekly injections; followed for 112 days
Text: The usage of the TLR2 agonist, i.e. Pam3CysLip Aβ1-6 peptide, improves the survival rate of TASTPM mouse model. 23 out of 25 mice survived after weekly injections of Pam3CysLip Aβ1-6 peptide compared to PBS injected animals in which only 13 out 25 TASTPM mice survived (followed for 112 days).

AD-like neuropathologies = details: Schenk D. et al, 1999; cited from earlier work

## C=C1[C@@H](C)[C@H]2[C@H](Cc3ccccc3)NC(=O)[C@]23[C@H](OC(C)=O)/C=C/[C@@](C)(O)C(=O)[C@@H](C)C/C=C/[C@H]3[C@@H]1O [cytochalasin D]
BV2 microglia cells
  effect on 2E7-increased cellular uptake of Aβ1-42: inhibited

## Pam3Cys—SQ EPAAPAAEAT PAAEAPDAEFRH (Pam3Cys-SQEPAAPAAEATPAAEAPDAEFRH) [Pam3CysLip Aβ1-6]
Aβ42
  Aβ42 specific immunogenicity: High Aβ42 specific Immunogenicity
Working memory
  right-left discrimination tests, T-water maze: trend of improvement
TASTPM mice
  mice survived: 23 out of 25

## synthetic human Aβ1-42: synthetic human Aβ1-42 used to immunize PDAPP mice
AD-like neuropathologies
  AD-like neuropathologies: reduce the extent and progression of AD-like neuropathologies
